Measurements published in ChEMBL document CHEMBL1201862, “PubChem BioAssay data set” (2004).
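Grown in 96-well plates, cells were treated for 48 hours with each compound at five concentrations. Insufficient inhibition: endpoint recorded as highest concentration tested. GI50 = concentration required for 50% inhibition of growth.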 The source made the active and inactive calls. No stated cut-off is given here; in the data, active = GI50 up to about 1.1 µM and inactive = higher.

What was measured:
Experiment in all cases: NCI-60 cell line screen, 48 h
[1] = tested on: KM12
[2] = tested on: M14
[3] = tested on: COLO 205
[4] = tested on: SF-268
[5] = tested on: SR
[6] = tested on: PC-3
[7] = tested on: MOLT-4
[8] = tested on: DU-145
[9] = tested on: RXF 393
[10] = tested on: MDA-N
[11] = tested on: SK-MEL-28
[12] = tested on: HOP-62
[13] = tested on: SNB-19
[14] = tested on: HL-60
[15] = tested on: K562
[16] = tested on: OVCAR-5
[17] = tested on: NCI-H460
[18] = tested on: A498
[19] = tested on: LOX IMVI
[20] = tested on: SK-OV-3
[21] = tested on: CAKI-1
[22] = tested on: SF-295
[23] = tested on: MCF7
[24] = tested on: U-251
[25] = tested on: SNB-75
[26] = tested on: MDA-MB-231
[27] = tested on: NCI/ADR-RES
[28] = tested on: 786-0
[29] = tested on: SF-539
[30] = tested on: OVCAR-3
[31] = tested on: HCT-116
[32] = tested on: NCI-H522
[33] = tested on: SW-620
[34] = tested on: IGROV-1
[35] = tested on: Malme-3M
[36] = tested on: A549
[37] = tested on: CCRF-CEM
[38] = tested on: BT-549
[39] = tested on: OVCAR-8
[40] = tested on: UACC-257
[41] = tested on: SN12C
[42] = tested on: TK-10
[43] = tested on: OVCAR-4
[44] = tested on: EKVX
[45] = tested on: RPMI-8226
[46] = tested on: UACC-62
[47] = tested on: HOP-92
[48] = tested on: HCT-15
[49] = tested on: NCI-H23
[50] = tested on: NCI-H226
[51] = tested on: MDA-MB-435
[52] = tested on: HT-29
[53] = tested on: UO-31
[54] = tested on: Hs-578T
[55] = tested on: T47D
[56] = tested on: ACHN
[57] = tested on: HCC 2998
[58] = tested on: SK-MEL-5
[59] = tested on: SK-MEL-2

For `CC1CN(c2cc3c(cc2F)c(=O)c(C(=O)O)cn3-c2ccc(F)cn2)CC(C)N1` (configuration not stated), the GI50 [1] was > 100 µM (inactive), the GI50 [2] was > 100 µM (inactive) and the GI50 [3] was > 100 µM (inactive). For the same molecule, the GI50 [4] was > 100 µM (inactive), the GI50 [5] was > 100 µM (inactive) and the GI50 [6] was > 100 µM (inactive). For the same molecule, the GI50 [7] was > 100 µM (inactive), the GI50 [8] was > 100 µM (inactive) and the GI50 [9] was > 100 µM (inactive). For the same molecule, the GI50 [10] was > 100 µM (inactive), the GI50 [11] was > 100 µM (inactive) and the GI50 [12] was > 100 µM (inactive). For the same molecule, the GI50 [13] was > 100 µM (inactive), the GI50 [14] was > 100 µM (inactive) and the GI50 [15] was > 100 µM (inactive). For the same molecule, the GI50 [16] was > 100 µM (inactive), the GI50 [17] was > 100 µM (inactive) and the GI50 [18] was > 100 µM (inactive). For the same molecule, the GI50 [19] was > 100 µM (inactive), the GI50 [20] was > 100 µM (inactive) and the GI50 [21] was > 100 µM (inactive). For the same molecule, the GI50 [22] was > 100 µM (inactive), the GI50 [23] was > 100 µM (inactive) and the GI50 [24] was > 100 µM (inactive). For the same molecule, the GI50 [25] was > 100 µM (inactive), the GI50 [26] was > 100 µM (inactive) and the GI50 [27] was > 100 µM (inactive). For the same molecule, the GI50 [28] was > 100 µM (inactive), the GI50 [29] was > 100 µM (inactive) and the GI50 [30] was > 100 µM (inactive). For the same molecule, the GI50 [31] was > 100 µM (inactive), the GI50 [32] was 22.5 µM (inactive) and the GI50 [33] was > 100 µM (inactive). For the same molecule, the GI50 [34] was > 100 µM (inactive), the GI50 [35] was > 100 µM (inactive) and the GI50 [36] was > 100 µM (inactive). For the same molecule, the GI50 [37] was > 100 µM (inactive), the GI50 [38] was > 100 µM (inactive) and the GI50 [39] was > 100 µM (inactive). For the same molecule, the GI50 [40] was > 100 µM (inactive), the GI50 [41] was > 100 µM (inactive) and the GI50 [42] was > 100 µM (inactive). For the same molecule, the GI50 [43] was > 100 µM (inactive), the GI50 [44] was > 100 µM (inactive) and the GI50 [45] was > 100 µM (inactive). The GI50 [46] was > 100 µM (inactive), the GI50 [47] was > 100 µM (inactive) and the GI50 [48] was > 100 µM. For the same molecule, the GI50 [49] was > 100 µM (inactive), the GI50 [50] was > 100 µM (inactive) and the GI50 [51] was > 100 µM (inactive). The GI50 [52] was > 100 µM (inactive), the GI50 [53] was > 100 µM (inactive) and the GI50 [54] was > 100 µM (inactive). The GI50 [55] was > 100 µM (inactive).
`O=C1c2ccc(O)cc2OC(c2cc(O)c(O)c(O)c2)C1O` (configuration not stated) [DIHYDROBINETIN] was tested, and the GI50 [1] was 26.7 µM (inactive), the GI50 [2] was > 100 µM (inactive) and the GI50 [3] was 32.4 µM (inactive). For the same molecule, the GI50 [4] was 34.1 µM (inactive), the GI50 [5] was 20.5 µM (inactive) and the GI50 [6] was > 100 µM (inactive). For the same molecule, the GI50 [7] was 19.1 µM (inactive), the GI50 [56] was 25.8 µM (inactive) and the GI50 [8] was 47.3 µM (inactive). For the same molecule, the GI50 [9] was > 100 µM (inactive), the GI50 [10] was 18.4 µM (inactive) and the GI50 [11] was 46.8 µM (inactive). The GI50 [12] was 35.5 µM (inactive), the GI50 [13] was 41.4 µM (inactive) and the GI50 [14] was 19.9 µM (inactive). For the same molecule, the GI50 [16] was 58.2 µM (inactive), the GI50 [17] was 19.8 µM (inactive) and the GI50 [18] was 28.1 µM (inactive). For the same molecule, the GI50 [19] was 19.1 µM (inactive), the GI50 [20] was > 100 µM (inactive) and the GI50 [21] was 53.8 µM (inactive). The GI50 [22] was 21.8 µM (inactive), the GI50 [23] was 25.7 µM (inactive) and the GI50 [24] was 22.5 µM (inactive). The GI50 [26] was 21.1 µM (inactive), the GI50 [57] was 31.6 µM (inactive) and the GI50 [27] was 25.1 µM (inactive). The GI50 [28] was 23.8 µM (inactive), the GI50 [29] was 21.5 µM (inactive) and the GI50 [30] was 47.9 µM (inactive). The GI50 [31] was 22 µM (inactive), the GI50 [32] was 24.8 µM (inactive) and the GI50 [33] was 25 µM (inactive). For the same molecule, the GI50 [34] was 18 µM (inactive), the GI50 [35] was > 100 µM (inactive) and the GI50 [36] was > 100 µM (inactive). The GI50 [37] was 24.1 µM (inactive), the GI50 [38] was 20.5 µM (inactive) and the GI50 [39] was 22 µM (inactive). The GI50 [58] was 33 µM (inactive), the GI50 [59] was 33.1 µM (inactive) and the GI50 [40] was 34.8 µM (inactive). The GI50 [41] was 20.4 µM (inactive), the GI50 [42] was 23.6 µM (inactive) and the GI50 [43] was 37.9 µM (inactive). The GI50 [44] was 19 µM (inactive), the GI50 [45] was 17.8 µM (inactive) and the GI50 [46] was 30.1 µM (inactive). For the same molecule, the GI50 [47] was > 100 µM (inactive), the GI50 [48] was 33.7 µM and the GI50 [49] was 34.5 µM (inactive). The GI50 [50] was 39.1 µM (inactive), the GI50 [51] was 19.8 µM (inactive) and the GI50 [52] was 23.4 µM (inactive). The GI50 [53] was 67.8 µM (inactive), the GI50 [54] was 70.1 µM (inactive) and the GI50 [55] was 37.8 µM (inactive).
